The text below walks through data of ChEMBL document CHEMBL1201862, “PubChem BioAssay data set” (2004).

For orientation: Ki means a dissociation constant, usually derived from enzyme kinetics or from competition with a known ligand. What is called pKi is −log10 of the Ki, conventionally taken in molar units. Read a high pKi as a low Ki. As usually defined, the IC50 is the point on the concentration scale where inhibition reaches its midpoint. By EC50 is commonly meant the concentration giving half of the maximal effect.

Activity calls are given as the source filed them.

In assay [1] the target is ALK tyrosine kinase receptor (Homo sapiens, UniProt Q9UM73). In kind it is functional.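 Further: ALK tested as one member of a kinase panel screen.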
The target of assay [2] is Tyrosine-protein kinase Lck (Homo sapiens, UniProt P06239). In kind it is functional.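 Further: lck was assayed as one member of a kinase panel.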
Assay [3] addresses Serine/threonine-protein kinase pim-1 (Homo sapiens, UniProt P11309). In kind it is functional.
The target in assay [4] is Tyrosine-protein kinase BTK (Homo sapiens, UniProt Q06187). In kind it is functional.
For a further assay, the target named is LIM domain kinase 1 (Homo sapiens, UniProt P53667). Put plainly: Navigating the Kinome. Panel member name: LIMK1. In kind it is functional.
Assay [5] has as its target Serine/threonine-protein kinase TAO1 (Homo sapiens, UniProt Q7L7X3). In kind it is functional.
The target in the next assay is Focal adhesion kinase 1 (Homo sapiens, UniProt Q05397). In kind it is functional.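 Further: measured as one member of a kinome panel.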
Assay [6] deals with Tyrosine-protein kinase Fyn (Homo sapiens, UniProt P06241). In kind it is functional.
For assay [7], the target named is Cyclin-dependent kinase 8 (Homo sapiens, UniProt P49336). Put plainly: Navigating the Kinome. Panel member name: CDK8. In kind it is functional.
Assay [8] deals with cGMP-dependent protein kinase 1 (Homo sapiens, UniProt Q13976). In kind it is functional.
The target of assay [9] is RAC-gamma serine/threonine-protein kinase (Homo sapiens, UniProt Q9Y243). In kind it is functional.
The target in assay [10] is 5'-AMP-activated protein kinase catalytic subunit alpha-1 (Homo sapiens, UniProt Q13131). In kind it is functional.
For assay [11], the target named is Serine/threonine-protein kinase D3 (Homo sapiens, UniProt O94806). It counts as functional.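 Further: determined within a kinase panel screen, with PRKCN as the panel member.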
Assay [12] addresses Testis-specific serine/threonine-protein kinase 2 (Homo sapiens, UniProt Q96PF2). It counts as functional.
For assay [13], the target named is Cyclin-dependent kinase 2 (Homo sapiens, UniProt P24941). In kind it is functional.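 Further: CDK2 measured as one member of a broad kinome profiling panel.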
In assay [14] the target is Cell division cycle 7-related protein kinase (Homo sapiens, UniProt O00311). In kind it is functional.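 Further: value obtained from a kinome-wide kinase panel.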
In assay [15] the target is Casein kinase II subunit alpha (Homo sapiens, UniProt P68400). In kind it is functional.
The target in assay [16] is Calcium/calmodulin-dependent protein kinase type II subunit delta (Homo sapiens, UniProt Q13557). In kind it is functional.
The target of assay [17] is Casein kinase I isoform gamma-1 (Homo sapiens, UniProt Q9HCP0). It counts as functional.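 Further: measured as the CSNK1G1 member of a kinome profiling panel.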
Assay [18] addresses Tyrosine-protein kinase Lyn (Homo sapiens, UniProt P07948). It counts as functional.
In assay [19] the target is Mitogen-activated protein kinase 9 (Homo sapiens, UniProt P45984). It counts as functional.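 Further: value from a kinome panel profiling assay, MAPK9 panel entry.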
Assay [20] has as its target Tyrosine-protein kinase Blk (Homo sapiens, UniProt P51451). In kind it is functional.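 Further: obtained as one member of a kinome-wide kinase assay panel.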
Assay [21] addresses Mitogen-activated protein kinase 13 (Homo sapiens, UniProt O15264). In kind it is functional.
In assay [22] the target is Mitogen-activated protein kinase kinase kinase 20 (Homo sapiens, UniProt Q9NYL2). It counts as functional.
Assay [23] has as its target Protein kinase C gamma type (Homo sapiens, UniProt P05129). It counts as functional.
In assay [24] the target is Glycogen synthase kinase-3 alpha (Homo sapiens, UniProt P49840). It counts as functional.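 Further: GSK3A result taken from a broad kinome-wide kinase panel.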
Assay [25] deals with Dual specificity tyrosine-phosphorylation-regulated kinase 3 (Homo sapiens, UniProt O43781). In kind it is functional.
The next assay has as its target Wee1-like protein kinase (Homo sapiens, UniProt P30291). Put plainly: Navigating the Kinome. Panel member name: WEE1. In kind it is functional.
Assay [26] deals with MAP kinase-activated protein kinase 3 (Homo sapiens, UniProt Q16644). In kind it is functional.
Assay [27] addresses Casein kinase I isoform delta (Homo sapiens, UniProt P48730). It counts as functional.
The target of assay [28] is Cyclin-dependent kinase 5 (Homo sapiens, UniProt Q00535). In kind it is functional.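 Further: CDK5 measured as one member of a kinase profiling panel.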
In the next assay the target is Misshapen-like kinase 1 (Homo sapiens, UniProt Q8N4C8). In kind it is functional.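 Further: kinome panel screen with MINK as the panel member.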
For assay [29], the target named is Dual specificity tyrosine-phosphorylation-regulated kinase 4 (Homo sapiens, UniProt Q9NR20). In kind it is functional.
The target of assay [30] is Protein kinase C iota type (Homo sapiens, UniProt P41743). In kind it is functional.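 Further: measured within a kinome-wide kinase panel, PRKCI as panel member.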
The target in assay [31] is cAMP-dependent protein kinase catalytic subunit PRKX (Homo sapiens, UniProt P51817). It counts as functional.
Assay [32] concerns the target RAC-alpha serine/threonine-protein kinase (Homo sapiens, UniProt P31749). It counts as functional.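 Further: AKT1 affinity measured as one member of a kinome-wide kinase profiling panel.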
Assay [33] has as its target Mitogen-activated protein kinase kinase kinase kinase 5 (Homo sapiens, UniProt Q9Y4K4). It counts as functional.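 Further: measured as one member of a kinome-spanning kinase panel.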
The target in assay [34] is Vascular endothelial growth factor receptor 3 (Homo sapiens, UniProt P35916). In kind it is functional.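 Further: value from a kinome-wide profiling panel, with FLT4 as the panel member.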
Assay [35] deals with Cyclin-dependent kinase 1 (Homo sapiens, UniProt P06493). In kind it is functional.
For assay [36], the target named is Serine/threonine-protein kinase pim-2 (Homo sapiens, UniProt Q9P1W9). It counts as functional.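 Further: value comes from a broad kinase panel profiling study in which PIM2 was one of the panel members.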
The target in assay [37] is Cyclin-dependent kinase 7 (Homo sapiens, UniProt P50613). It counts as functional.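 Further: value comes from a kinome-wide kinase profiling panel in which CDK7 is one member.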
Assay [38] deals with Cyclin-dependent kinase 9 (Homo sapiens, UniProt P50750). It counts as functional.
In assay [39] the target is Receptor tyrosine-protein kinase erbB-4 (Homo sapiens, UniProt Q15303). In kind it is functional.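 Further: ERBB4 member of a kinome-wide kinase profiling panel.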
Assay [40] addresses Lymphokine-activated killer T-cell-originated protein kinase (Homo sapiens, UniProt Q96KB5). In kind it is functional.
Assay [41] addresses Serine/threonine-protein kinase MRCK alpha (Homo sapiens, UniProt Q5VT25). It counts as functional.
For assay [42], the target named is Macrophage-stimulating protein receptor (Homo sapiens, UniProt Q04912). Nature of the assay: Navigating the Kinome. Panel member name: MST1R. In kind it is functional.
Assay [43] concerns the target Mitogen-activated protein kinase 14 (Homo sapiens, UniProt Q16539). In kind it is functional.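 Further: part of a kinome-wide panel, MAPK14 entry.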
A further assay has as its target T1, Leucine aminopeptidase (Plasmodium falciparum 3D7, UniProt Q8IL11).
T1 sequence (Q8IL11 whole entry): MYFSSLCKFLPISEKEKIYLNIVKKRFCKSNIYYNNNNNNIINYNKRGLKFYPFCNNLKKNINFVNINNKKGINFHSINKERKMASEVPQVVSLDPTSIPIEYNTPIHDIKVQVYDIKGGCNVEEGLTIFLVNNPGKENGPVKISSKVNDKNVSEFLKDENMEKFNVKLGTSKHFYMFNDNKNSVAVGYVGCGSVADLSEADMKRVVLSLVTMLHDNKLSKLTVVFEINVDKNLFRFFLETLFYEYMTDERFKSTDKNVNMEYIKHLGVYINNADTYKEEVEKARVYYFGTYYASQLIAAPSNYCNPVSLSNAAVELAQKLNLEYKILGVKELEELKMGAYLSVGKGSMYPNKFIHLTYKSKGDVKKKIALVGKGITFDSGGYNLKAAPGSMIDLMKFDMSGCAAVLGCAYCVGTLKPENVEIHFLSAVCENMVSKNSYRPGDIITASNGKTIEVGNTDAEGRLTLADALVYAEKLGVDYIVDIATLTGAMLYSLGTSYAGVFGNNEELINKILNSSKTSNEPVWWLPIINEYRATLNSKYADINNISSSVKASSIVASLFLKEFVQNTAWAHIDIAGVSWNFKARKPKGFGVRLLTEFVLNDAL
Nature of the assay: P. falciparum M17LAP inhibitors, primary screen, biochemical, fluorogenic H-Leu-NHMec substrate, 1536-well (AID 1619). It counts as functional.

For another assay, the target named is T2, Aspartyl aminopeptidase (Plasmodium falciparum 3D7, UniProt Q8I2J3).
T2 sequence (Q8I2J3 whole entry): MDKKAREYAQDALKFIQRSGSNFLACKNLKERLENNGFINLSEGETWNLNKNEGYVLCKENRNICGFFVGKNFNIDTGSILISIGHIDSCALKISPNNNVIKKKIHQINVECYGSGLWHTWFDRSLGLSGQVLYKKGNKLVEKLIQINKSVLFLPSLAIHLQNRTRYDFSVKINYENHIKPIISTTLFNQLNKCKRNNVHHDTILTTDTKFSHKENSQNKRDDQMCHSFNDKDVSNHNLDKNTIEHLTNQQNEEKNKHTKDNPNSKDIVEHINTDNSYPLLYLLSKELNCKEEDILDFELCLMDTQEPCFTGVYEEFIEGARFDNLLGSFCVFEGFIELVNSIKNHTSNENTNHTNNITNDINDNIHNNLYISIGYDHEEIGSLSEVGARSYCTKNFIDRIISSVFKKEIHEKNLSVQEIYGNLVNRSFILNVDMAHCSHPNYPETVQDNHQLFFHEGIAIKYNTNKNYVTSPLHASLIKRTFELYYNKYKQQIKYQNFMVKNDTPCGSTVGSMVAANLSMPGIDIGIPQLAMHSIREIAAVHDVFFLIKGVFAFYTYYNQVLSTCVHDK
Nature of the assay: Counterscreen for inhibitors of M1 and M17 aminopeptidases: QFRET-based biochemical high throughput dose response assay for inhibitors of the Plasmodium falciparum M18 Aspartyl Aminopeptidase (PFM18AAP). [Related PubChem assays: 1619 (Screening assay (M17LAP inhibitors).), 1445 (Screening assay (M1AAP inhibitors).)].

In another assay the target is Procathepsin L (Homo sapiens, UniProt P07711). Put plainly: CTSL1 protease inhibition – biochemical, QFRET, 1536-well, counter-screen for M1/M17 aminopeptidase inhibitor project, dose response (AID 2214).
For assay [44], the target named is Multidrug resistance protein CDR2 (Candida albicans (strain SC5314 / ATCC MYA-2876) (Yeast), UniProt P78595). Nature of the assay: inhibition of Nile Red efflux via Candida CDR2 – S. cerevisiae AD1-8u, singleplex, Cherry Pick1 hits, dose response (AID 588604). It counts as functional.
Assay [45] concerns the target Serine/threonine-protein kinase PLK3 (Homo sapiens, UniProt Q9H4B4). In kind it is functional.
The target in assay [46] is Tyrosine-protein kinase SYK (Homo sapiens, UniProt P43405). In kind it is functional.
Assay [47] concerns the target Homeodomain-interacting protein kinase 2 (Homo sapiens, UniProt Q9H2X6). In kind it is functional.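 Further: measured within a kinome-wide kinase profiling panel, HIPK2 being one panel member.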
Assay [48] has as its target MAP/microtubule affinity-regulating kinase 3 (Homo sapiens, UniProt P27448). It counts as functional.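 Further: MARK3 affinity measured as one member of a kinome panel.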
Assay [49] deals with Calcium/calmodulin-dependent protein kinase type II subunit beta (Homo sapiens, UniProt Q13554). In kind it is functional.
The target of assay [50] is Serine/threonine-protein kinase PLK1 (Homo sapiens, UniProt P53350). In kind it is functional.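 Further: PLK1 measured as one member of a kinome-wide profiling panel.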
The target of assay [51] is Glycogen synthase kinase-3 beta (Homo sapiens, UniProt P49841). It counts as functional.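 Further: value comes from a broad kinome profiling panel, with GSK3B as the panel member.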
Glycogen synthase kinase-3 beta, sequence (P49841 whole entry): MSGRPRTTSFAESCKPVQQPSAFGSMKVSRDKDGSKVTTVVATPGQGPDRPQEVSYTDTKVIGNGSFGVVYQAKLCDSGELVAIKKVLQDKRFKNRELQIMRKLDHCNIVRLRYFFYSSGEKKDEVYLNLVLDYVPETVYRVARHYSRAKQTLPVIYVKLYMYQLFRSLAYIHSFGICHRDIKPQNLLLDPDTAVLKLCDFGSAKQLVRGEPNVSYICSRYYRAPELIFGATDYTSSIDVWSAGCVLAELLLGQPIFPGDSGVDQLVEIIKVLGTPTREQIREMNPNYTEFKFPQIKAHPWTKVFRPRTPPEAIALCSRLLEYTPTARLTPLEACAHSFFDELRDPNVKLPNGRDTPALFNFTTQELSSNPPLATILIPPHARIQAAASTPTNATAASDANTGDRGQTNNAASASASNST

Serine/threonine-protein kinase pim-1, sequence (P11309 whole entry): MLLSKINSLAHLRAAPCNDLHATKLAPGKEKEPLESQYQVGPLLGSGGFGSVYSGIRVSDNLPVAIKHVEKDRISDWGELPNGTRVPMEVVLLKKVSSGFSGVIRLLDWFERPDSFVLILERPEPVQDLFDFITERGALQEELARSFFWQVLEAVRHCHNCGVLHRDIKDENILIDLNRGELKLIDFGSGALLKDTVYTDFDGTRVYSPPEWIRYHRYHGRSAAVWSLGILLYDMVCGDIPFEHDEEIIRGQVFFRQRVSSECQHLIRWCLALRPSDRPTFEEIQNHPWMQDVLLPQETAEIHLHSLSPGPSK
Misshapen-like kinase 1, sequence (Q8N4C8 whole entry): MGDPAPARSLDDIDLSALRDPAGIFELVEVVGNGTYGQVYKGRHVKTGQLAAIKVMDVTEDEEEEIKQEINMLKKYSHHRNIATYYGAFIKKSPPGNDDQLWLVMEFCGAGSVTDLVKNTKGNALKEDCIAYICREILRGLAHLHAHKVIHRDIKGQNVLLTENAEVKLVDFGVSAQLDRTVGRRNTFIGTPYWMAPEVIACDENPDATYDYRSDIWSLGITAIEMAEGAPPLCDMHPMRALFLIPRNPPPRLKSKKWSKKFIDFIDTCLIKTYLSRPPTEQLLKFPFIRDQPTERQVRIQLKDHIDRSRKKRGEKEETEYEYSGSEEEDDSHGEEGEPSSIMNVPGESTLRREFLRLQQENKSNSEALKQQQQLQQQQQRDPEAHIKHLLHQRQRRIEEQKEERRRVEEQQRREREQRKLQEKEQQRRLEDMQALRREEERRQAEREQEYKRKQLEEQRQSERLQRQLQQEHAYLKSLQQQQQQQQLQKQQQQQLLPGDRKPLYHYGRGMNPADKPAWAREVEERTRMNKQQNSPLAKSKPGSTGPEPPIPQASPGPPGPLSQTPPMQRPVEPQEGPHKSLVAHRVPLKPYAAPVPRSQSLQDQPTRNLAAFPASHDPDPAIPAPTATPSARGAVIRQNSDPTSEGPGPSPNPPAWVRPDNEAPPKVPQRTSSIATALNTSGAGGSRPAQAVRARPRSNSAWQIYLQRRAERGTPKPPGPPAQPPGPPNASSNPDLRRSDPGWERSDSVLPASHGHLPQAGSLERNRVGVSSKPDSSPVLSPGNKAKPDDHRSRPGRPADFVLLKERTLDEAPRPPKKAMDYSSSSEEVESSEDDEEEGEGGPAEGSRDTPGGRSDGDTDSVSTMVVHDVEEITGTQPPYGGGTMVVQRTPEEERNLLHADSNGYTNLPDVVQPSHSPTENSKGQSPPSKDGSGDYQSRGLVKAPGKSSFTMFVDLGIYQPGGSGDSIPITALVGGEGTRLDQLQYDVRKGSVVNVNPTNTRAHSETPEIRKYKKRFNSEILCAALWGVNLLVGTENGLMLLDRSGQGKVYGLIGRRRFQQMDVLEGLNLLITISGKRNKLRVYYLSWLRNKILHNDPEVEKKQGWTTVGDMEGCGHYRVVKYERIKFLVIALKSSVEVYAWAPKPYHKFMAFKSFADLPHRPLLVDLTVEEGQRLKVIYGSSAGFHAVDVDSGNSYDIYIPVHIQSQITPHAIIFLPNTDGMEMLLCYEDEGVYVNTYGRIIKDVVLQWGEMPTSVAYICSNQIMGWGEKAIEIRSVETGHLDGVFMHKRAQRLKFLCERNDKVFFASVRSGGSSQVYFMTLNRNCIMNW
Cyclin-dependent kinase 8, sequence (P49336 whole entry): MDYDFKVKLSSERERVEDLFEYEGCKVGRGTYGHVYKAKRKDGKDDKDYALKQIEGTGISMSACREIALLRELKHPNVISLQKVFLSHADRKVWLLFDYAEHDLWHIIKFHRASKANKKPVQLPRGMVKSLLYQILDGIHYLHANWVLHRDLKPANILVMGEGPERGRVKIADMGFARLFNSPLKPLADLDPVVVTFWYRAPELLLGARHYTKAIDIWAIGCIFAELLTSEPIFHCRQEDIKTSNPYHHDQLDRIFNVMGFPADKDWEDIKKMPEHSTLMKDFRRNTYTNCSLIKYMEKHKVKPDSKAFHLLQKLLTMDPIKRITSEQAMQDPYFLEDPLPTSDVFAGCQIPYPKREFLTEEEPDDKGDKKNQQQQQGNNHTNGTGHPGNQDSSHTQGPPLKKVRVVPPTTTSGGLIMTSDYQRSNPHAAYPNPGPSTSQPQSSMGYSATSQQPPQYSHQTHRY
Casein kinase II subunit alpha, sequence (P68400 whole entry): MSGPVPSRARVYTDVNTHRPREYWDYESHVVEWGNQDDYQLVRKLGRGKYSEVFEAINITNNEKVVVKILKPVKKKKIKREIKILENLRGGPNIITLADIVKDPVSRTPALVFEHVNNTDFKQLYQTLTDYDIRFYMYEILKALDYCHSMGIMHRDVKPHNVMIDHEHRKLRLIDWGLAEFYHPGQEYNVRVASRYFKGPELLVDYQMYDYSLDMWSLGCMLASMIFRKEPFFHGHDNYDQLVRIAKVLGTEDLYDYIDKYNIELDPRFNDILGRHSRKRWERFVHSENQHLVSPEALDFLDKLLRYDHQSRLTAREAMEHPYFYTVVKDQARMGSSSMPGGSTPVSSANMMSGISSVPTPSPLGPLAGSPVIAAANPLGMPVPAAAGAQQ
Tyrosine-protein kinase Lck, sequence (P06239 whole entry): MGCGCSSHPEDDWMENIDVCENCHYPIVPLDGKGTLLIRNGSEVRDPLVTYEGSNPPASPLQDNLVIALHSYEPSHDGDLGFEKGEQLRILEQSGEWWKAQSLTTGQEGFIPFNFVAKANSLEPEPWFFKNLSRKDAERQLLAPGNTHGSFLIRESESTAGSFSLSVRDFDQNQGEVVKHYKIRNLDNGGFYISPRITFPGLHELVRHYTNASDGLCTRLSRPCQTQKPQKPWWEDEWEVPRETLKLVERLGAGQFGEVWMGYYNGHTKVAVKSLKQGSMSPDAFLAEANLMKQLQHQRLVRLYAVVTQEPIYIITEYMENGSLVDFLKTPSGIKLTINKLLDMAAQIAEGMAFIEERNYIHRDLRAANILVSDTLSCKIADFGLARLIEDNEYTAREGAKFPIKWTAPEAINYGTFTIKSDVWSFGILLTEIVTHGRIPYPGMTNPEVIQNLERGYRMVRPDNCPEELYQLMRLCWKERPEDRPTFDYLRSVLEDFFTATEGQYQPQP
Cyclin-dependent kinase 7, sequence (P50613 whole entry): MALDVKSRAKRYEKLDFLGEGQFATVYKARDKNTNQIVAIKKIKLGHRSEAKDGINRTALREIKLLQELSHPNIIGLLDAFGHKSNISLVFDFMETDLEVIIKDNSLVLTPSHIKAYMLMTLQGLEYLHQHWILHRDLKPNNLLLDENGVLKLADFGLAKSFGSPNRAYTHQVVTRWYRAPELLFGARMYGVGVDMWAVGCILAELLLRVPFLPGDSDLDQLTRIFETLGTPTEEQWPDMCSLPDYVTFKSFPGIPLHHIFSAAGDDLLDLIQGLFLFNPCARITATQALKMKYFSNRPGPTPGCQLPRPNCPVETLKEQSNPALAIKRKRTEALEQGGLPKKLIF
Mitogen-activated protein kinase 9, sequence (P45984 whole entry): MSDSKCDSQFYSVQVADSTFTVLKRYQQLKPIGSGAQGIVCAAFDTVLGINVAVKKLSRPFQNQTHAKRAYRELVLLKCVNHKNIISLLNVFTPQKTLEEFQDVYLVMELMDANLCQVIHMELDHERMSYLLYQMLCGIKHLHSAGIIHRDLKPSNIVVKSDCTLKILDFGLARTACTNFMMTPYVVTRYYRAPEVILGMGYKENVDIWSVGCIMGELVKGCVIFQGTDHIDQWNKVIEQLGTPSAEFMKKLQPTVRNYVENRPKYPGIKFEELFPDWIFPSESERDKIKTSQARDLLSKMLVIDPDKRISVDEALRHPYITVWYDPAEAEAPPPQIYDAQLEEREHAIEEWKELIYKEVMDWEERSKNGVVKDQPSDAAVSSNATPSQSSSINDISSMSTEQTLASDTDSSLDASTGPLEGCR
Dual specificity tyrosine-phosphorylation-regulated kinase 3, sequence (O43781 whole entry): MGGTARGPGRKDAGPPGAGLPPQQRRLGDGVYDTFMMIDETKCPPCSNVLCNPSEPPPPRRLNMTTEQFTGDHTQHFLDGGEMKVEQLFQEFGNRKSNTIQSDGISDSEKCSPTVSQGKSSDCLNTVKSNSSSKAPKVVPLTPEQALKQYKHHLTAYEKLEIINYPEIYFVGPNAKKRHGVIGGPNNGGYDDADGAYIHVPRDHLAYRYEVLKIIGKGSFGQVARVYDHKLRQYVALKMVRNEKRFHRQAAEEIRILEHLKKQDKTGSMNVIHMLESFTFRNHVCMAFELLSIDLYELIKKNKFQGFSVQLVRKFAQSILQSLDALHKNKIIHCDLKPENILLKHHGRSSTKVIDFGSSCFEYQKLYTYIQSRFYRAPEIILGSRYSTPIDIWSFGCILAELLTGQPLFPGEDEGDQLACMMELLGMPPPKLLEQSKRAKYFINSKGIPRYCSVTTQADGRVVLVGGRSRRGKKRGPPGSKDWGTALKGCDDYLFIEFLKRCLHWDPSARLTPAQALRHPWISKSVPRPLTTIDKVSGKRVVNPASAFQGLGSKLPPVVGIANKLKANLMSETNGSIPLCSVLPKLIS

Turning to `CC(C)(C)c1cc(NC(=O)C(=O)c2cccc3ccccc23)n(-c2ccc(OCC(=O)NCCO)cc2)n1`, the Ki in [1] is > 6.31 µM (inactive); in assay [2], > 6.31 µM (inactive); in [3], > 6.31 µM (inactive); in assay [4] it was > 6.31 µM (inactive); at LIM domain kinase 1, 501 nM (active); in assay [5] it was > 6.31 µM (inactive). Moreover, the values for the Ki (at Focal adhesion kinase 1; in assay [6]; in assay [7]) were > 6.31 µM (inactive), > 6.31 µM (inactive) and 1.58 µM (active), respectively.
With `COc1cc(N2CCC(N3CCN(C)CC3)CC2)ccc1Nc1ncc(Cl)c(Nc2ccccc2S(=O)(=O)C(C)C)n1` [TAE-684], the Ki is 1.58 µM (active) in assay [8]; > 10 µM (inactive) in assay [9]; 10 nM (active) in [10]; 31.6 nM (active) in [11]; 10 nM (active) in assay [12]; > 7.94 µM (inactive) in [3]. The Ki was > 1 µM (inactive) in assay [14]; > 2.51 µM (inactive) in assay [15]; 3.98 nM (active) in assay [16]; > 6.31 µM (inactive) in [17]; 79.4 nM (active) in assay [18]; 398 nM (active) in assay [19]. The inhibition constant Ki in assay [20] is 63.1 nM (active); in assay [21], > 7.94 µM (inactive); in assay [22], > 7.94 µM (inactive); in [23], > 1 µM (inactive); in assay [24], > 3.16 µM (inactive); in [25], > 6.31 µM (inactive). The Ki is > 251 nM (inactive) at Wee1-like protein kinase; > 10 µM (inactive) in assay [26]; > 7.94 µM (inactive) in assay [27]; 79.4 nM (active) in assay [28]; 1 µM (active) on Misshapen-like kinase 1; > 7.94 µM (inactive) in assay [29]. Further, the Ki was > 5.01 µM (inactive) in [30]; > 1 µM (inactive) in assay [31]; > 7.94 µM (inactive) in assay [32]; 79.4 nM (active) in assay [33]; 7.94 nM (active) in assay [34]; 316 nM (active) in assay [35]. Besides, the Ki in [36] was > 1.58 µM (inactive); in [7], > 3.98 µM (inactive); in assay [37], 79.4 nM (active); in assay [38] it was > 1.58 µM (inactive); in [39], 20 nM (active); in assay [40], > 10 µM (inactive). The Ki in [41] is 3.98 µM (active); in assay [42], 126 nM (active); in assay [43], > 3.98 µM (inactive). In addition, in [13], the pKi is 6.9.
`Cc1cc(C(=O)COC(=O)c2ccc[nH]c2=O)c(C)n1-c1ccc(F)cc1`: the concentration for half-maximal inhibition (IC50) at Leucine aminopeptidase was 1.98 µM (active); against Aspartyl aminopeptidase, > 73.5 µM (not active); on Procathepsin L, > 59.6 µM (not active). Moreover, the EC50 in [44] was 6.22 µM (active).
Take `Cc1ccc(Nc2c(C(=O)O)n(CCCOc3cccc4ccccc34)c3cccc(-c4ccccc4C)c23)cc1`: the inhibition constant (Ki) in [45] was 3.16 µM (active); in [46], 1.26 µM (active); in [47] it was 3.16 µM (active); in assay [48], 3.98 µM (active); in [49], 6.31 µM (active); at Misshapen-like kinase 1 it was 6.31 µM (active). Moreover, the Ki is 2.51 µM (active) in assay [50] and 3.98 µM (active) in [51].
